Experimental data: patent EP4745138A1, “THIO-GLUTARIMIDO ISOINDOLINONE DERIVATIVE, BIFUNCTIONAL PROTEIN DEGRADER CONTAINING SAME, AND USES THEREOF” (Gluetacs Therapeutics (Shanghai) Co., Ltd., priority 2023, dated 2025)
Like-named read-outs stand apart in the source and are kept apart here.

Columns and labels:
GSPT1 = target: T1, GSPT1 (Homo sapiens, UniProt P15170+Q96SW2); experiment: Western blot, substrate protein degradation in hPBMC Cell; assay type: cell-based; details: substrate protein remaining %, treated at 50 nM and 500 nM, 24 hours
T1 construct: endogenous in cells; host or cells: hPBMC
T1 sequence (P15170 whole entry): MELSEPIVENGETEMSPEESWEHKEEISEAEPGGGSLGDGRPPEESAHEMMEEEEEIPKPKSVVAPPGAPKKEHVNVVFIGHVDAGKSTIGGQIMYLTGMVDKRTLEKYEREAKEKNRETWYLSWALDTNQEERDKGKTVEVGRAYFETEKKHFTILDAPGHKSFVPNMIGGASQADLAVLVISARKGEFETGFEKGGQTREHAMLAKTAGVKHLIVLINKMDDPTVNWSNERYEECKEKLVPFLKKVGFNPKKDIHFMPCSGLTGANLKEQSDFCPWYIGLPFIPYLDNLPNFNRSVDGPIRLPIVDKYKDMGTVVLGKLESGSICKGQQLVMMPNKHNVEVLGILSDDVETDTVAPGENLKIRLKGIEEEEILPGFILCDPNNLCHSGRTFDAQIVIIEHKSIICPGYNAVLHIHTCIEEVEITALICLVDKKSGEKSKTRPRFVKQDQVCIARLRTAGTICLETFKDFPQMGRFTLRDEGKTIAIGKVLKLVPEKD
T1 sequence (Q96SW2 whole entry): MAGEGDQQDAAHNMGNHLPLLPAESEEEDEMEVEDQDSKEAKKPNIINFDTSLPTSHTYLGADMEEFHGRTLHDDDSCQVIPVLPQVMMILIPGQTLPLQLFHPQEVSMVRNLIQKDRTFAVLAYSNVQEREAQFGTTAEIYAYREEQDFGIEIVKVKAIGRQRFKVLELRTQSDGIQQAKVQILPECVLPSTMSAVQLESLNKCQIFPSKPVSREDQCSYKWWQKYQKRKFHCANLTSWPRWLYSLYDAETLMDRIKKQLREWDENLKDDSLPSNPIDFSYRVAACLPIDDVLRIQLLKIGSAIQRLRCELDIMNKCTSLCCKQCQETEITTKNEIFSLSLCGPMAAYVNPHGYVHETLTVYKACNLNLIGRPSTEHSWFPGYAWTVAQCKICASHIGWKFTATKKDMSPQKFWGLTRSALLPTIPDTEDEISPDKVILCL
T1 sequence (Q16531 whole entry partner): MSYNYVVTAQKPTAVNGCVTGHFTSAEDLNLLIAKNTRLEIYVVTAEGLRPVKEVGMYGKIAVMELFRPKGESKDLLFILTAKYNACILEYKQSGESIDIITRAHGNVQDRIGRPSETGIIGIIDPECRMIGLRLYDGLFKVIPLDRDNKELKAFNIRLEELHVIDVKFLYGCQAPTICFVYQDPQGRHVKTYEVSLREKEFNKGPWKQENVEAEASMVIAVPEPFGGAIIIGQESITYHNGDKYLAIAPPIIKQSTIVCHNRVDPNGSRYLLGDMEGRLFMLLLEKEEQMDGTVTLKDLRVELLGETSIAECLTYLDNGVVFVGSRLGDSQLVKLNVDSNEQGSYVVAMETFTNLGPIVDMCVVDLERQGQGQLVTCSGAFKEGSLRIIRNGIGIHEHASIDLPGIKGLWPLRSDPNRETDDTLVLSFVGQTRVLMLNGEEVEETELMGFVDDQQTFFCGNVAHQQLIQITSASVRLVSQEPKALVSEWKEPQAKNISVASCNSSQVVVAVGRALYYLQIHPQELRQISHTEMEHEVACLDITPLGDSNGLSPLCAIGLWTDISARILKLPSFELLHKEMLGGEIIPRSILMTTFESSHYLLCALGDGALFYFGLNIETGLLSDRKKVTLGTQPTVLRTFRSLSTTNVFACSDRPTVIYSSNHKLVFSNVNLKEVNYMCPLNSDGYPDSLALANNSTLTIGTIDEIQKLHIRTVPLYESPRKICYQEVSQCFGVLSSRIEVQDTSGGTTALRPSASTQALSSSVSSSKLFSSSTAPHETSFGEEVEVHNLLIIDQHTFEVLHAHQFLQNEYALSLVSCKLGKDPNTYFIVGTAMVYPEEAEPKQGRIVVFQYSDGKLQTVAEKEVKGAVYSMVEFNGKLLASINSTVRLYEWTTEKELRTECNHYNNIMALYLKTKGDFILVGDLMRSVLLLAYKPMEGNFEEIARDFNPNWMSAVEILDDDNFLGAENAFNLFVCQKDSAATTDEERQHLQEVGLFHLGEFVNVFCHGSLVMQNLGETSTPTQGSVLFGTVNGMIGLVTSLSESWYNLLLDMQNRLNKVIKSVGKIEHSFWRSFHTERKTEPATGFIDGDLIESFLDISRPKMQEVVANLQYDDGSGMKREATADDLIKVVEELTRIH
Protocol: (§1) Conventional Western blot assay was performed to evaluate the effects of the compounds of the present disclosure on the expression of target proteins in cells.
(§2) (1) Cell Seeding and Protein Harvesting: The selected cells were processed according to the cell seeding procedure and protein harvesting procedure in Table II-2. Table II-2 Cell Seeding and Protein Harvesting Procedures
(§3) (2) To the collected supernatant, 5X SDS sample loading buffer was added, followed by denaturation at 95°C for 5 minutes. The denatured samples were then separated by SDS-PAGE electrophoresis on a polyacrylamide gel. Proteins were transferred to a nitrocellulose membrane (0.45 µm NC membrane), blocked with blocking buffer at room temperature for 1 hour, and subjected to antibody incubation and development procedures according to the antibody manufacturer's instructions (Cell Signaling Technology).
(§4) Half-Maximal Degradation Concentration value (the drug concentration required for degrading proteins by 50%, abbreviated as DC50) reads method: comparing the grayscale values of Western blot bands from drug-treated samples with those from blank DMSO-treated controls, and identifying the drug concentration range at which the grayscale value is half that of the DMSO-treated control bands.
(§5) DC50 values can be calculated using ImageJ software to measure grayscale values of Western blot bands from drug-treated samples. The concentration-response curve is fitted to estimate the drug concentration corresponding to half the grayscale value.
(§6) Target protein remaining (%) refers to the percentage of target protein remaining in cells after treatment with protein degrader compounds.
(§7) Calculation method for target protein remaining (%): Use ImageJ software to measure grayscale values of Western blot bands from drug (protein degrader)-treated samples. The grayscale value of drug-treated bands is divided by that of internal control protein bands, and the resulting quotient is normalized to obtain the relative percentage of remaining target protein after protein degrader treatment. Target protein degradation rate(%) = 1−target protein remaining(%). [formula]

IKZF1 = target: T2, IKZF1 (Homo sapiens, UniProt Q13422+Q96SW2); experiment: as above; assay type: cell-based; details: substrate protein remaining %, treated at 50 nM and 500 nM, 24 hours
T2 construct: endogenous in cells; host or cells: hPBMC
Protocol: as §1, §2, §3, §4, §5, §6, §7

CK1α = target: T3, CK1α (Homo sapiens, UniProt P48729+Q96SW2); experiment: as above; assay type: cell-based; details: substrate protein remaining %, treated at 50 nM and 500 nM, 24 hours
T3 construct: endogenous in cells; host or cells: hPBMC
T3 sequence (P48729 whole entry): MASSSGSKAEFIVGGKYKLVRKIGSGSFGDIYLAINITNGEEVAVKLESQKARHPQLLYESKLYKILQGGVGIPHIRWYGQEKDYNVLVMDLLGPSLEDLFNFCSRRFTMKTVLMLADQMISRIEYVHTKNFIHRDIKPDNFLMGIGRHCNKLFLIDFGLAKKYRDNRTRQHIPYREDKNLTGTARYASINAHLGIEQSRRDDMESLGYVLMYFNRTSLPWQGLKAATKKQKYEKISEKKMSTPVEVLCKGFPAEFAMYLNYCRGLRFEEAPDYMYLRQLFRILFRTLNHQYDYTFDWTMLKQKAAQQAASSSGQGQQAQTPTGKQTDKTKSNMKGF
T3 sequence (Q96SW2 whole entry): as the sequence (Q96SW2 whole entry) above
T3 sequence (Q16531 whole entry partner): as the sequence (Q16531 whole entry partner) above
Protocol: as §1, §2, §3, §4, §5, §6, §7

IKZF3 = target: T4, IKZF3 (Homo sapiens, UniProt Q96SW2+Q9UKT9); experiment: as above; assay type: cell-based; details: substrate protein remaining %, treated at 50 nM and 500 nM, 24 hours
T4 construct: endogenous in cells; host or cells: hPBMC
T4 sequence (Q9UKT9 whole entry): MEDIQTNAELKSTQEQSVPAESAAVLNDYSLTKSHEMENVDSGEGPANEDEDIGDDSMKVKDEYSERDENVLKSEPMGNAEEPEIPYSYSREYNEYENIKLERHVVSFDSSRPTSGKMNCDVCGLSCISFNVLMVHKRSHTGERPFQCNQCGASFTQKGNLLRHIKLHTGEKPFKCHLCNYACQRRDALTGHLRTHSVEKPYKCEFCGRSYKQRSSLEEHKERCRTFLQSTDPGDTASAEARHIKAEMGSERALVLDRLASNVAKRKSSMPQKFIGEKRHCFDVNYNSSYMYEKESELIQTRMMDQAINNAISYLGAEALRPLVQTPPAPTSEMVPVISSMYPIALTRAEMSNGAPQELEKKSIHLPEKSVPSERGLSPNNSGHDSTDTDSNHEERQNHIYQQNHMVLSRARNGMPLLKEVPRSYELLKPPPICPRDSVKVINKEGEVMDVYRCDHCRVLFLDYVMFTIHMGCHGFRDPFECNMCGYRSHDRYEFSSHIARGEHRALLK
T4 sequence (Q96SW2 whole entry): as the sequence (Q96SW2 whole entry) above
T4 sequence (Q16531 whole entry partner): as the sequence (Q16531 whole entry partner) above
Protocol: as §1, §2, §3, §4, §5, §6, §7

IKZF2 = target: T5, IKZF2 (Homo sapiens, UniProt Q96SW2+Q9UKS7); experiment: as above; assay type: cell-based; details: substrate protein remaining %, treated at 50 nM and 500 nM, 24 hours
T5 construct: endogenous in cells; host or cells: hPBMC
T5 sequence (Q9UKS7 whole entry): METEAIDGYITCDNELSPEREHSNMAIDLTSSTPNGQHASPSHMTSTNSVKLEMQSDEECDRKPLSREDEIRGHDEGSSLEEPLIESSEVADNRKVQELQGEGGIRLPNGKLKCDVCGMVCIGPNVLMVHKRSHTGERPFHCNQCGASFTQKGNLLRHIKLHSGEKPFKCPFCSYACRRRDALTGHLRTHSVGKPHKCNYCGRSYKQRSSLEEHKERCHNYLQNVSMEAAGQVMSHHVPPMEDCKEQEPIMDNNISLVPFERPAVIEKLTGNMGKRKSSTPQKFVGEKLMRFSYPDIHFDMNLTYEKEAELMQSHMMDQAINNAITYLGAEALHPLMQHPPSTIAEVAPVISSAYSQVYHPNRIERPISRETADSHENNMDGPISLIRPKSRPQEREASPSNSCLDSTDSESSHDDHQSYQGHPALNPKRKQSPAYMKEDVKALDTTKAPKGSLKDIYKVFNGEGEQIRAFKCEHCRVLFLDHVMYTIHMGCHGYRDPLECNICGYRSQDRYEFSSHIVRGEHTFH
T5 sequence (Q96SW2 whole entry): as the sequence (Q96SW2 whole entry) above
T5 sequence (Q16531 whole entry partner): as the sequence (Q16531 whole entry partner) above
Protocol: as §1, §2, §3, §4, §5, §6, §7

WEE1 = experiment: as above; assay type: cell-based, Human; details: substrate protein remaining %, treated at 50 nM and 500 nM, 24 hours
Protocol: as §1, §2, §3, §4, §5, §6, §7

[1] = target: T6, human Cereblon WT GST-tagged protein (Homo sapiens, UniProt Q96SW2); experiment: CRBN-binding affinity, HTRF (CEREBLON BINDING kit); details: for IC50: CRBN binding, HTRF; for inhibition at 0.5 µM: read-out: Inhibition Rate at 0.5 µM (%); for inhibition at 2 µM: read-out: Inhibition Rate at 2 µM (%)
T6 construct: purchased CISBIO 64BDCRBNPEH
T6 sequence (Q96SW2 whole entry): as the sequence (Q96SW2 whole entry) above
How it was run: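 Binding to GST-tagged Cereblon was probed by HTRF tracer displacement (thalidomide-red acceptor, anti-GST Eu donor), with compounds present at final 2 µM and 0.5 µM.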

MM.1S = experiment: Tumor cell proliferation inhibition (CellTiter-Meiluncell Luminescent Cell Viability Assay); assay type: cell-based; details: Homo sapiens, MM1.S, MM.1S, 96 hours; for inhibition at 0.01 µM: 10 nM, read-out: Inhibition Rate at 10 nM (%)
How it was run: (§8)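 Following overnight seeding, tumor cells received serial compound dilutions to final levels that included 10 nM and 500 nM. Viability was assessed by luminescence at the end of the specified exposure time. Cultures were kept at 37°C with 5% CO2.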

CDK4 = target: T7, CDK4 (Homo sapiens, UniProt P11802); experiment: Western blot, target protein degradation in MDA-MB-231 Cell; assay type: cell-based; details: substrate protein remaining %, treated at 500 nM and 50 nM, 24 hours
T7 construct: endogenous in cells; host or cells: MDA-MB-231
T7 sequence (P11802 whole entry): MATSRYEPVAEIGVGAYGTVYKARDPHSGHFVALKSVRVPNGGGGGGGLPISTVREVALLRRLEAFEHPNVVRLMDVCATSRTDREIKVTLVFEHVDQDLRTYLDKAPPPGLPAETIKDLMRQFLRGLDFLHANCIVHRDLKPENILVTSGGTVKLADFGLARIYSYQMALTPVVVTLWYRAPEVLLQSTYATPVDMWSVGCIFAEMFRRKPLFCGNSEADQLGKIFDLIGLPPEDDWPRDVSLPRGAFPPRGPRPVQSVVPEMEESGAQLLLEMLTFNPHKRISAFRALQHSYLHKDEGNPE
Protocol: as §1, §2, §3, §4, §5, §6, §7

CDK6 = target: T8, CDK6 (Homo sapiens, UniProt Q00534); experiment: as above; assay type: cell-based; details: substrate protein remaining %, treated at 500 nM and 50 nM, 24 hours
T8 construct: endogenous in cells; host or cells: MDA-MB-231
T8 sequence (Q00534 whole entry): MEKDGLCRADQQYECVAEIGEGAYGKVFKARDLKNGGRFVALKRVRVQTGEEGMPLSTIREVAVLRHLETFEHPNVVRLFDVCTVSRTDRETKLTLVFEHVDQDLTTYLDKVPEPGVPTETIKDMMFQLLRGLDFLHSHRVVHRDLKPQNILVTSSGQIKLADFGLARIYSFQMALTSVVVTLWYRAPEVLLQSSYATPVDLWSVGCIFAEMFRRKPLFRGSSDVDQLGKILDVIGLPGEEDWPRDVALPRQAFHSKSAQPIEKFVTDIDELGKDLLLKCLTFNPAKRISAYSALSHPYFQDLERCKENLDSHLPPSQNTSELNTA
Protocol: as §1, §2, §3, §4, §5, §6, §7

MV-4-11 = experiment: Tumor cell proliferation inhibition (CellTiter-Meiluncell Luminescent Cell Viability Assay); assay type: cell-based; details: Homo sapiens, 96 hours, Table I-9, CDK4/6 inhibitors
How it was run: as §8

| Structure (SMILES) | Degradation of substrate protein GSPT1 (GSPT1) | Degradation of substrate protein IKZF1 (IKZF1) | Degradation of substrate protein CK1α (CK1α) | Degradation of substrate protein IKZF3 (IKZF3) | Degradation of substrate protein IKZF2 (IKZF2) | Degradation of substrate protein WEE1 (WEE1) | IC50 [1] | inhibition at 0.5 µM [1] | inhibition at 2 µM [1] | Degradation of substrate protein CDK4 (CDK4) | Degradation of substrate protein CDK6 (CDK6) | also measured |
| --- | --- | --- | --- | --- | --- | --- | --- | --- | --- | --- | --- | --- |
| O=C1CCC(N2Cc3ccccc3C2=S)C(=O)N1 (stereo not drawn) [GT-05563, 3-(1-thioxoisoindolin-2-yl)piperidine-2,6-dione] | A (0% ≤ substrate protein remaining % ≤ 80%) | A (0% ≤ substrate protein remaining % ≤ 80%) | B (80%< substrate protein remaining %≤ 100%) | A (0% ≤ substrate protein remaining % ≤ 80%) | A (0% ≤ substrate protein remaining % ≤ 80%) | A (0% ≤ substrate protein remaining % ≤ 80%) | < 500 nM | – | – | – | – | – |
| O=C1CCC(N2Cc3ccc(CO)cc3C2=S)C(=O)N1 (stereo not drawn) [GT-05566, 3-(6-(hydroxymethyl)-1-thioxoisoindolin-2-yl)piperidine-2,6-dione] | A (0% ≤ substrate protein remaining % ≤ 80%) | A (0% ≤ substrate protein remaining % ≤ 80%) | B (80%< substrate protein remaining %≤ 100%) | A (0% ≤ substrate protein remaining % ≤ 80%) | A (0% ≤ substrate protein remaining % ≤ 80%) | A (0% ≤ substrate protein remaining % ≤ 80%) | < 500 nM | – | – | – | – | inhibition at 0.01 µM (MM.1S; Table I-16, compounds of Formula (II)): 20 to 30% |
| CN(C)C(=O)c1cc2cnc(Nc3ccc(N4CCN(Cc5ccc6c(c5)CN(C5CCC(=O)NC5=O)C6=S)CC4)cn3)nc2n1C1CCCC1 (stereo not drawn) [GT-08765, 7-cyclopentyl-2-((5-(4-((2-(2,6-dioxopiperidin-3-yl)-1-thioxoisoindolin-5-yl)methyl)piperazin-1-yl)pyridin-2-yl)amino)-N,N-dimethyl-7H-pyrrolo[2,3-d]pyrimidine-6-carboxamide] | – | – | – | – | – | – | – | 40 to 53% | 80 to 100% | A (0% ≤ substrate protein remaining % ≤ 80%) | A (0% ≤ substrate protein remaining % ≤ 80%) | inhibition at 0.01 µM (MM.1S; Table I-9, CDK4/6 inhibitors): 30 to 40%; inhibition at 0.5 µM (MM.1S; 500 nM, Table I-9, CDK4/6 inhibitors, read-out: Inhibition Rate at 500 nM (%)): 40 to 50% |
| CC(=O)c1c(C)c2cnc(Nc3ccc(N4CCN(Cc5ccc6c(c5)CN(C5CCC(=O)NC5=O)C6=S)CC4)cn3)nc2n(C2CCCC2)c1=O (stereo not drawn) [GT-08766, 3-(5-((4-(6-((6-acetyl-8-cyclopentyl-5-methyl-7-oxo-7,8-dihydropyrido[2,3-d]pyrimidin-2-yl)amino)pyridin-3-yl)piperazin-1-yl)methyl)-1-thioxoisoindolin-2-yl)piperidine-2,6-dione] | – | – | – | – | – | – | – | 53 to 60% | 80 to 100% | A (0% ≤ substrate protein remaining % ≤ 80%) | A (0% ≤ substrate protein remaining % ≤ 80%) | – |
| CN(C)C(=O)c1cc2cnc(Nc3ccc(N4CCN(Cc5cccc6c5CN(C5CCC(=O)NC5=O)C6=S)CC4)cn3)nc2n1C1CCCC1 (stereo not drawn) [GT-08771, 7-cyclopentyl-2-((5-(4-((2-(2,6-dioxopiperidin-3-yl)-1-thioxoisoindolin-4-yl)methyl)piperazin-1-yl)pyridin-2-yl)amino)-N,N-dimethyl-7H-pyrrolo[2,3-d]pyrimidine-6-carboxamide] | – | – | – | – | – | – | – | 60 to 80% | 80 to 100% | A (0% ≤ substrate protein remaining % ≤ 80%) | A (0% ≤ substrate protein remaining % ≤ 80%) | – |
| CC(=O)c1c(C)c2cnc(Nc3ccc(N4CCN(Cc5cccc6c5CN(C5CCC(=O)NC5=O)C6=S)CC4)cn3)nc2n(C2CCCC2)c1=O (stereo not drawn) [GT-08772, 3-(4-((4-(6-((6-acetyl-8-cyclopentyl-5-methyl-7-oxo-7,8-dihydropyrido[2,3-d]pyrimidin-2-yl)amino)pyridin-3-yl)piperazin-1-yl)methyl)-1-thioxoisoindolin-2-yl)piperidine-2,6-dione] | – | – | – | – | – | – | – | – | – | A (0% ≤ substrate protein remaining % ≤ 80%) | A (0% ≤ substrate protein remaining % ≤ 80%) | inhibition at 0.01 µM (MV-4-11; MV4-11, 10 nM, read-out: Inhibition Rate at 10 nM (%)): 30 to 40%; inhibition at 0.5 µM (MV-4-11; MV4-11, 500 nM, read-out: Inhibition Rate at 500 nM (%)): 40 to 50% |
